From PMC10321319 (Nature, 2022)
Read-outs that look alike come from different tables or passages of the source.

Assays:
[1] = tested on: N. gonorrhoeae 49226
[2] = tested on: K. pneumoniae 10031; settings: n=2
[3] = tested on: A. baumannii 0301 (mcr-1); test: MIC, microbial susceptibility assay; assay type: cell-based, Acinetobacter baumannii
[4] = tested on: HT29 cells; test: MTT cytotoxicity assay; assay type: cell-based, human; settings: 48 h incubation
[5] = tested on: M. osloensis 10973; settings: eptA intrinsic resistance
[6] = tested on: E. cloacae ATCC13047 (ΔphoP/Q+phoP/Q)
[7] = Pharmacokinetics assessment, plasma; assay type: in vivo; settings: mice, single subcutaneous dose 10 mg/kg
[8] = tested on: P. vulgaris 49132; settings: Proteus vulgaris, intrinsically colistin resistant (L-Ara4N)
[9] = tested on: S. aureus SH1000; test: MIC, microbial susceptibility assay; assay type: cell-based; settings: n=2
[10] = tested on: A. baumannii-SM1536-mcr-1; test: Neutropenic thigh infection model; assay type: in vivo, Acinetobacter baumannii; settings: neutropenic mice, 20 mg/kg subcutaneous, 24 h
[11] = tested on: A. baumannii 0301; settings: lipid analog table
[12] = tested on: K. pneumoniae ATCC13883 (pMQ124-mcr-1)
[13] = tested on: A. baumannii ATCC17978; test: CHIR-090 inhibition assay, growth curves; assay type: cell-based, Acinetobacter baumannii
[14] = tested on: E. faecium Com15; test: MIC, microbial susceptibility assay; assay type: cell-based; settings: n=2
[15] = tested on: N. meningitidis 13090; settings: eptA intrinsic resistance
[16] = tested on: A. baumannii 0287 (mcr-1 +); test: MIC, microbial susceptibility assay; assay type: cell-based, Acinetobacter baumannii; settings: XDR A. baumannii 0287, mcr-1 +
[17] = tested on: A. baumannii ATCC17978; test: MIC, microbial susceptibility assay; assay type: cell-based, Acinetobacter baumannii; settings: n=2
[18] = tested on: A. baumannii ATCC17978 (pMQ124xlab1-mcr-1); test: MIC, microbial susceptibility assay; assay type: cell-based, Acinetobacter baumannii; settings: n=2
[19] = tested on: E. cloacae 0150; test: MIC, microbial susceptibility assay; assay type: cell-based, Enterobacter cloacae; settings: n=2
[20] = tested on: A. baumannii 0286; test: MIC, microbial susceptibility assay; assay type: cell-based, Acinetobacter baumannii; settings: XDR A. baumannii 0286, mcr-1 −
[21] = tested on: A. baumannii 0295; test: MIC, microbial susceptibility assay; assay type: cell-based, Acinetobacter baumannii; settings: XDR A. baumannii 0295, mcr-1 −
[22] = tested on: A. baumannii 0287; test: MIC, microbial susceptibility assay; assay type: cell-based, Acinetobacter baumannii; settings: XDR A. baumannii 0287, mcr-1 −
[23] = tested on: E. cloacae ATCC13047 (ΔphoP/Q); settings: E. cloacae ATCC13047 (ΔphoP/Q); n=2
[24] = tested on: A. baumannii SM1536
[25] = tested on: S. typhimurium 0635 (mcr-1); test: MIC, microbial susceptibility assay; assay type: cell-based; settings: S. typhimurium 0635, mcr-1 clinical isolate; n=2
[26] = tested on: K. pneumoniae 0497 (mcr-1); settings: K. pneumoniae 0497, mcr-1 clinical isolate; n=2
[27] = tested on: K. pneumoniae ATCC13883; settings: n=2
[28] = tested on: A. baumannii SM1536 (pMQ124xlab1-mcr-1); test: MIC, microbial susceptibility assay; assay type: cell-based, Acinetobacter baumannii
[29] = tested on: A. baumannii-0301-mcr-1; test: Neutropenic thigh infection model; assay type: in vivo, Acinetobacter baumannii; settings: neutropenic mice, 20 mg/kg subcutaneous, 24 h
[30] = tested on: A. baumannii 0282; test: MIC, microbial susceptibility assay; assay type: cell-based, Acinetobacter baumannii; settings: XDR A. baumannii 0282, mcr-1 −
[31] = tested on: pairs of colistin sensitive and resistant strains of K. pneumoniae and A. baumannii (mcr-1 plasmid); assay type: cell-based
[32] = tested on: P. aeruginosa PA01; test: MIC, microbial susceptibility assay; assay type: cell-based, Pseudomonas aeruginosa; settings: n=2
[33] = tested on: A. baumannii 0295 (mcr-1 +); test: MIC, microbial susceptibility assay; assay type: cell-based, Acinetobacter baumannii; settings: XDR A. baumannii 0295, mcr-1 +
[34] = tested on: A. baumannii 0296; test: MIC, microbial susceptibility assay; assay type: cell-based, Acinetobacter baumannii; settings: XDR A. baumannii 0296, mcr-1 −

colistin
MIC [1]: >128 µg/mL | MIC [2]: 0.5 µg/mL | MIC ([3]; A. baumannii 0301 (mcr-1), lipid analog table): >128 µg/mL | Fold increase in MIC ([3]; A. baumannii 0301 upon introduction of mcr-1): >512 | MIC ([3]; A. baumannii-0301 transformed with mcr-1 (PDR strain)): > 64 µg/mL | cytotoxicity to human cells, IC50 [4]: > 512 µg/mL | MIC [5]: 8 µg/mL | MIC ([6]; E. cloacae ATCC13047 (ΔphoP/Q+phoP/Q), n=2): 32 µg/mL | Fold increase in MIC ([6]; E. cloacae ATCC13047 upon introduction of phoP/Q): 32 | susceptibility of strain ([6]; E. cloacae phoP/Q deletion rescued with phoP/Q plasmid): resistant | plasma drug exposure (pharmacokinetic profile) [7]: parity in plasma drug exposure | MIC [8]: > 128 µg/mL | MIC [9]: >128 µg/mL | bacterial burden in thigh relative to initial infection [10]: did not reduce the bacterial burden below the level of the initial infection | MIC [11]: 0.25 µg/mL | Fold increase in MIC ([12]; K. pneumoniae 13883 upon introduction of mcr-1): 64 | MIC ([12]; K. pneumoniae ATCC13883 (pMQ124-mcr-1), n=2): 64 µg/mL | A. baumannii growth with antibiotic plus CHIR-090 ([13]; antibiotic at 10x MIC with LpxC inhibitor CHIR-090, 48 h): rescued A. baumannii growth | A. baumannii growth with antibiotic alone ([13]; concentrations above MIC (10x MIC), 48 h): completely abrogated A. baumannii growth | MIC [14]: >128 µg/mL | MIC [15]: 128 µg/mL | MIC [16]: 64 µg/mL | MIC ([17]; A. baumannii 17978, ESKAPE panel): 1 µg/mL | MIC ([17]; A. baumannii ATCC17978, mcr-1 engineered pairs): 1 µg/mL | MIC [18]: 32 µg/mL | MIC [19]: 1 µg/mL | MIC [20]: 1 µg/mL | MIC [21]: 0.25 µg/mL | MIC [22]: 0.5 µg/mL | MIC [23]: 1 µg/mL | MIC ([24]; lipid analog table): 0.5 µg/mL | MIC ([24]; n=2): 0.5 µg/mL | MIC [25]: 16 µg/mL | MIC [26]: 32 µg/mL | MIC [27]: 1 µg/mL | MIC ([28]; A. baumannii SM1536 (pMQ124xlab1-mcr-1), n=2): 128 µg/mL | Fold increase in MIC ([28]; A. baumannii SM1536 upon introduction of mcr-1): 256 | bacterial burden in thigh relative to initial infection [29]: did not reduce the bacterial burden below the level of the initial infection | MIC [30]: 0.5 µg/mL | increase in MIC upon mcr-1 expression [31]: ≥ 32 fold | MIC [32]: 1 µg/mL | MIC [33]: >128 µg/mL | MIC [34]: 0.25 µg/mL
